Our source for the IC50, Target and Selectivity values is patent US11773129B2, “Methods of preventing or treating atherosclerosis with inhibitors of specific isoenzymes of human neuraminidase” (THE GOVERNORS OF THE UNIVERSITY OF ALBERTA, priority 2017, dated 2023).

Format in all cases: biochemical
The target of assay [1] is T1, NEU1 (Homo sapiens, UniProt Q99519).
T1 construct: made in house; host or cells: HEK293 (lentiviral transduction), crude lysate
As to the kind of experiment: IC50 inhibition assay using 4MU-NANA as the substrate, NEU1. Conditions: 4MU-NANA as the substrate; read-out: IC50 NEU1. How it is done:
Two weeks after transduction cells were harvested and a crude lysate showing ˜200 nmol/h mg of sialidase activity used in experiments.
Assays were performed with duplicates for each point and IC50 was obtained by plotting the data with Graphpad™ Prism 5.0.

The target in assay [2] is T2, NEU4 (Homo sapiens, UniProt Q8WWR8).
T2 sequence (Q8WWR8 1-484): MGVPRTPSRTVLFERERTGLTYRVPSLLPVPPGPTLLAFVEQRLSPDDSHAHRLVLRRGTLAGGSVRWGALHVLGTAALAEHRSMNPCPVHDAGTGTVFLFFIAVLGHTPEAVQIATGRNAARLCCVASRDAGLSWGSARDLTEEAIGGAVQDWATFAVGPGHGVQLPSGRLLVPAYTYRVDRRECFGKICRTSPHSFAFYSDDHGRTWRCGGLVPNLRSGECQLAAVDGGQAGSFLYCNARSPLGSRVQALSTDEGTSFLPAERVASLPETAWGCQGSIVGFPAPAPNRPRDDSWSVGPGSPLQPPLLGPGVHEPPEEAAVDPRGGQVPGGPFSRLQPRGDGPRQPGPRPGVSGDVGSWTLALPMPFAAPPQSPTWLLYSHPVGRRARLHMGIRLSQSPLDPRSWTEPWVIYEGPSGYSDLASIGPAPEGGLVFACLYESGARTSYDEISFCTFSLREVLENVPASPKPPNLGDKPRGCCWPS
The assay can be described thus: IC50 inhibition assay using 4MU-NANA as the substrate, NEU4. Particulars: 4MU-NANA as the substrate; read-out: IC50 NEU4. On the set-up: GST; made in house; host or cells: E. coli.

In assay [3] the test system is NEU1, NEU2, NEU3, NEU4. As to the kind of experiment: Isoenzyme specificity/selectivity from 4MU-NANA IC50 across the four human neuraminidases. Conditions: for Target: isoenzyme(s) the compound is specific for, dual (bispecific) when ratio of IC50 is about 3 or less.
Assay [4] addresses T3, NEU3 (Homo sapiens, UniProt Q9UQ49).
T3 sequence (Q9UQ49 1-428): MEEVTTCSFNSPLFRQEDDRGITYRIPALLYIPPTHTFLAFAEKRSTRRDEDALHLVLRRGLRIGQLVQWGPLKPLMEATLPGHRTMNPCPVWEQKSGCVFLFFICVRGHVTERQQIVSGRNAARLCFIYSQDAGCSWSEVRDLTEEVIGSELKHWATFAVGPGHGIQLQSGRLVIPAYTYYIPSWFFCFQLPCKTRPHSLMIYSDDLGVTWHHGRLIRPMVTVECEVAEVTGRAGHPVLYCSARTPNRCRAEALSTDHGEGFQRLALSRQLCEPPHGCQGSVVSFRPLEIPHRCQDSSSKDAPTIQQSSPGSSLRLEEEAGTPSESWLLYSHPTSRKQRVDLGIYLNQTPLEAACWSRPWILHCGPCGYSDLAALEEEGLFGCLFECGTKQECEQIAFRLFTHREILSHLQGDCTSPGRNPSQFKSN
The assay can be described thus: IC50 inhibition assay using 4MU-NANA as the substrate, NEU3. On the set-up: MBP (N); made in house; host or cells: E. coli. Conditions: 4MU-NANA as the substrate; read-out: IC50 NEU3.

A value given as a limit tells only on which side of the number the result lay.

For orientation: IC50 means the midpoint of a concentration-inhibition curve. Consider `CC(=O)N[C@H]1[C@H]([C@H](O)[C@H](O)Cn2cc(-c3ccc(N)cc3)nn2)OC(C(=O)O)=C[C@@H]1O` [7c], for which the IC50 in assay [1] worked out at 76 ± 16 µM; in assay [2] it was 12 ± 1 µM; in assay [4], 8.7 ± 0.9 µM. The Target result in assay [3] is reported as “NEU3/ NEU4”.
In the same order, the values of `CC(=O)N[C@H]1[C@H]([C@H](O)[C@H](O)Cn2cc(-c3ccc(C)cc3)nn2)OC(C(=O)O)=C[C@@H]1O` [7d] are 51 ± 7 µM, 3.9 ± 0.4 µM, 8.2 ± 1.3 µM and “NEU3/ NEU4”.
For `COc1ccc(-c2cn(C[C@@H](O)[C@@H](O)[C@@H]3OC(C(=O)O)=C[C@H](O)[C@H]3NC(C)=O)nn2)cc1` [7e, 5-Acetamido-(4-methoxyphenyl)-2,6-anhydro-3,5-dideoxy-b-glycero-D-galacto-non-2-enonic acid], in that order: 47 ± 6 µM, 2.6 ± 0.3 µM, 5.9 ± 0.4 µM and “NEU3/ NEU4”.
For `CC(=O)N[C@H]1[C@H]([C@H](O)[C@H](O)Cn2cc(-c3ccc(F)cc3)nn2)OC(C(=O)O)=C[C@@H]1O` [7f], the results for the IC50 in assay [1], in assay [2] and in assay [4] were 100 ± 40 µM, 1.3 ± 0.2 µM and 17 ± 2 µM, respectively. The molecule further registered a Selectivity in assay [3] (from 4MU-NANA IC50, for the isoenzyme(s) in column Target) of 10. The Target entry in assay [3] is “NEU4”.
With `CC(=O)N[C@H]1[C@H]([C@H](O)[C@H](O)Cn2cc(-c3ccc(C(F)(F)F)cc3)nn2)OC(C(=O)O)=C[C@@H]1O` [7g], the results for the IC50 in assay [1], in assay [2] and in assay [4] were 140 ± 30 µM, 5 ± 0.9 µM and 3.3 ± 0.5 µM, respectively. In assay [3], the Target result is reported as “NEU3/ NEU4”.
In the same order, the values of `CC(=O)N[C@@H]1C(O)C=C(C(=O)O)OC1C(O)C(O)Cn1cc(-c2ccc(C(=O)O)cc2)nn1` (stereo partly shown) [7h] are 240 ± 90 µM, 3 ± 0.3 µM, 1.1 ± 0.1 µM and “NEU3/ NEU4”.
In the same order, the values of `CC(=O)N[C@H]1[C@H]([C@H](O)[C@H](O)Cn2cc(-c3ccc(Oc4ccccc4)cc3)nn2)OC(C(=O)O)=C[C@@H]1O` [7j] are over 500 µM, 0.97 ± 0.24 µM, 1 ± 0.1 µM and “NEU3/ NEU4”.
For `CC(=O)N[C@@H]1C(NC(=N)N)C=C(C(=O)O)OC1C(O)C(O)Cn1cc(-c2ccc(C(=O)O)cc2)nn1` (stereo partly shown) [8a], in that order: over 500 µM, 24 ± 2 µM, 0.61 ± 0.1 µM and “NEU3”.
For `CC(=O)N[C@H]1[C@H]([C@H](O)[C@H](O)Cn2cc(-c3ccc(C(=O)O)cc3)nn2)OC(C(=O)O)=C[C@@H]1NC(=O)NCCC(=O)O` [compound 18], the IC50 is over 500 µM in assay [1], 66 ± 16 µM in assay [2] and over 500 µM in assay [4]. The Target result in assay [3] is “NEU4”.
For the molecule `CC(=O)N[C@@H]1C(O)C=C(C(=O)O)OC1C(O)C(O)Cn1cc(CNC(=O)c2ccccc2)nn1` (stereo partly shown) [compound 26], the half-maximal inhibitory concentration (IC50) in assay [1] was over 500 µM; in assay [2], 1.1 ± 0.2 µM; in assay [4] it was 15 ± 1 µM. Moreover, in assay [3], the Target result is “NEU4”.
As to `CC(=O)N[C@@H]1C(O)C=C(C(=O)O)OC1C(O)C(O)Cn1cc(-c2ccc(NC(=O)c3ccccc3)cc2)nn1` (stereo partly shown) [compound 27], the IC50 in assay [1] worked out at 190 ± 70 µM; in assay [2] it was 3.7 ± 0.4 µM; in assay [4], 2.9 ± 0.2 µM. In addition, the Target entry in assay [3] is on record as “NEU3/ NEU4”.
Consider `CCC(=O)N[C@H]1[C@H]([C@H](O)[C@H](O)CO)OC(C(=O)O)=C[C@@H]1O` [compound 29, 5-Propionamido-2,6-anhydro-3,5-dideoxy-D-glycero-D-galacto-non-2-enonic acid], for which the IC50 in assay [1] turned out to be 18 ± 1 µM; in assay [2] it was 87 ± 18 µM; in assay [4], 60 ± 7 µM. Besides, the Target entry in assay [3] is given as “NEU1”.
As to `CCCC(=O)N[C@@H]1C(O)C=C(C(=O)O)OC1C(O)C(O)CO` (stereo partly shown) [compound 30, 5-Butyramido-2,6-anhydro-3,5-dideoxy-n-glycero-n-galacto-non-2-enonic acid], the values for the IC50 in assay [1], in assay [2] and in assay [4] were 8.4 ± 0.5 µM, 8.4 ± 0.4 µM and 15 ± 2 µM, respectively. The Target result in assay [3] is recorded as “NEU1/ NEU4”.
In the case of `CCCCCCC(=O)N[C@H]1[C@H]([C@H](O)[C@H](O)CO)OC(C(=O)O)=C[C@@H]1O` [compound 33, 5-Heptanamido-2,6-anhydro-3,5-dideoxy-D-glycero-D-galacto-non-2-enonic acid], the IC50 in assay [1] is 2.1 ± 0.2 µM; in assay [2] it was 470 ± 200 µM; in assay [4] it was 210 ± 70 µM. Further, the Target entry in assay [3] is on record as “NEU1”.
In the same order, the values of `CC(C)C(=O)N[C@H]1[C@H]([C@H](O)[C@H](O)CO)OC(C(=O)O)=C[C@@H]1O` [compound 34, 5-isobutyramido-2,6-anhydro-3,5-dideoxy-D-glycero-D-galacto-non-2-enonic acid] are 5.3 ± 0.8 µM, 71 ± 17 µM, over 500 µM and “NEU1”.
For `CC(C)CC(=O)N[C@H]1[C@H]([C@H](O)[C@H](O)CO)OC(C(=O)O)=C[C@@H]1O` [compound 35, 5-(3-methylbutanamido)-2,6-anhydro-3,5-dideoxy-D-glycero-D-galacto-non-2-enonic acid], in that order: 32 ± 5 µM, over 500 µM, over 500 µM and “NEU1/ NEU2”.
Take `CC(C)CCC(=O)N[C@H]1[C@H]([C@H](O)[C@H](O)CO)OC(C(=O)O)=C[C@@H]1O` [compound 36, 5-(4-Methylpentanamido)-2,6-anhydro-3,5-dideoxy-D-glycero-D-galacto-non-2-enonic acid]: the values for the IC50 in assay [1], in assay [2] and in assay [4] were 1.7 ± 0.1 µM, 370 ± 160 µM and 150 ± 20 µM, respectively. For the same molecule, the Target result in assay [3] is on record as “NEU1”.
Consider `O=C(O)C1=C[C@H](O)[C@@H](NC(=O)C2CC2)[C@H]([C@H](O)[C@H](O)CO)O1` [compound 37, 5-Cyclopropanecarboxamido-2,6-anhydro-3,5-dideoxy-D-glycero-D-galacto-non-2-enonic acid], for which the IC50 is 6.9 ± 0.4 µM in assay [1], 150 ± 40 µM in assay [2] and 170 ± 40 µM in assay [4]. Moreover, the Target entry in assay [3] is reported as “NEU1”.
For `O=C(O)C1=C[C@H](O)[C@@H](NC(=O)C2CCC2)[C@H]([C@H](O)[C@H](O)CO)O1` [compound 38, 5-Cyclobutanecarboxamido-2,6-anhydro-3,5-dideoxy-D-glycero-D-galacto-non-2-enonic acid], the IC50 came out at 12 ± 2 µM in assay [1], 81 ± 15 µM in assay [2] and 100 ± 20 µM in assay [4]. The Target entry in assay [3] is recorded as “NEU1”.
For `O=C(O)C1=C[C@H](O)[C@@H](NC(=O)c2ccccc2)[C@H]([C@H](O)[C@H](O)CO)O1` [compound 39, 5-Benzamido-2,6-anhydro-3,5-dideoxy-D-glycero-D-galacto-non-2-enonic acid], in that order: 11 ± 1 µM, over 500 µM, 480 ± 100 µM and “NEU1”.
In the same order, the values of `O=C(Cn1cc(-c2ccc(C(F)(F)F)cc2)nn1)N[C@@H]1C(O)C=C(C(=O)O)OC1C(O)C(O)CO` (stereo partly shown) [compound 41] are over 500 µM, 300 ± 60 µM, over 500 µM and “NEU2”.
For `O=C(Cn1cc(-c2ccc(C(=O)O)cc2)nn1)N[C@@H]1C(O)C=C(C(=O)O)OC1C(O)C(O)CO` (stereo partly shown) [compound 43], in that order: over 500 µM, 400 ± 160 µM, over 500 µM and “NEU2”.
In the case of `COc1ccc(-c2cn(CC(=O)N[C@@H]3C(O)C=C(C(=O)O)OC3C(O)C(O)CO)nn2)cc1` (stereo partly shown) [compound 44], the IC50 in assay [1] is over 500 µM; in assay [2] it was 87 ± 14 µM; in assay [4], over 500 µM. In assay [3], the Target result is reported as “NEU2”.
As to `O=C(Cn1cc(-c2ccc(F)cc2)nn1)N[C@@H]1C(O)C=C(C(=O)O)OC1C(O)C(O)CO` (stereo partly shown) [compound 45], the results for the IC50 in assay [1], in assay [2] and in assay [4] were over 500 µM, 100 ± 20 µM and 240 ± 40 µM, respectively. Further, the Target entry in assay [3] is given as “NEU2”.
